From patent US6861233B1, “Method of screening for triacyglycerol hydrolase inhibitors” (Glaxo Group Limited, priority 1999, dated 2005)
pIC50: −log10 of the molar value.

Columns and labels:
normal fed hamsters = assay: Hypolipidemic activity of the TGH inhibitor in hamster; assay type: in vivo; conditions: oral, 25 mg/kg twice a day for 3 days
Procedure: Ten normal fed hamsters were randomly allocated into 2 groups. Animals from one group were orally gavaged with a test TGH inhibitor in DMSOI Labrafil (10/90%), 25 mg/kg, twice a day for 3 days while the animals from the other group were gavaged with the solvent (DMSOI/abrafil) twice a day for 3 days. The animals were sacrificed 4 hours following the last administration and the plasma lipids and lipoproteins were analyzed.
Total cholesterol (TC) and triglyceride (TG) levels in plasma were determined enzymatically with reagents from Bio Merieux. VLDL/LDL lipoprotein fractions were separated from the HDL lipoproteins by gradient centrifugation (d=1.063). Cholesterol in the VLDL/LDL as well as in the HDL fraction was also determined using the Bio Merieux kit. Apolipoprotein B-100 (Apo-B100) in the VLDL/LDL fraction was visualized by using SDS-PAGE under reducing conditions using resolving gels containing a 5% to 12% gradient.

[1] = target: T1, lipoprotein lipase (LPL) from bovine milk (Bos taurus, UniProt P11151); assay: Effect of TGH inhibitors on lipoprotein lipase activity (radiolabelled trioleoylglycerol hydrolysis); assay type: biochemical; conditions: tested at 5 μM, incubated with the enzyme 15-min prior to substrate
T1 construct: lipoprotein lipase (LPL) from bovine milk; from tissue; host or cells: bovine milk
T1 sequence (P11151 29-478): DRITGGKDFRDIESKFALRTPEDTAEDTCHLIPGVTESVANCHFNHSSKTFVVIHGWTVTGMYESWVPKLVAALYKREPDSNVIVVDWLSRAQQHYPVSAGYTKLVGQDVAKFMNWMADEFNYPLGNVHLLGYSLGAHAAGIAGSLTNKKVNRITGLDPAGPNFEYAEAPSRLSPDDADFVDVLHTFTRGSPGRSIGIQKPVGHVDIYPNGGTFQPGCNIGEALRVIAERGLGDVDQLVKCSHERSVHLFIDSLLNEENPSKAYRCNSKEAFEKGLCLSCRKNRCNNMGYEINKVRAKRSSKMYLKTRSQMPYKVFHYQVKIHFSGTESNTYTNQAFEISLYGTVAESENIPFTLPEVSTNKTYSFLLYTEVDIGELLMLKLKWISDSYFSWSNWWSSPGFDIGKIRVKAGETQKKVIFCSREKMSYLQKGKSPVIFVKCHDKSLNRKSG
Procedure: In order to evaluate the specificity of TGH inhibitors toward TGH, test compound was tested on the enzymatic activity of lipoprotein lipase (LPL) from bovine milk. For this purpose radiolabelled trioleoylglycerol (250 μM, specific activity 1 mCi/mmole) was emulsified in mixture of 10% gum arabic by sonication. Long-chain triacylglycerol hydrolysis was assayed in a final volume of 200 μl containing LPL (1.5 μg/ml), Tris (50 mM), pH 8.0; MgCl2 CaCl2 (1 mM), and 150 mM NaCl with 1 mg/ml BSA as a fatty acid acceptor for 30 min at 37° C. The reaction was terminated with the addition of 3.25 ml of methanol/chloroform/heptane (3.85:3.42:2.73 by volume); 0.3 ml of 150 mM NaCl, lipid carriers (100 μg of unlabelled oleic acid), and 50 μl of 1 N NaOH. The mixture was vortexed and centrifuged. One ml of the upper phase (containing the fatty acids that have been hydrolyzed) was mixed with 10 ml of Cytoscint and counted. Test compound is incubated with the enzyme 15 minutes prior to the addition of the substrate.

human liver TGH = target: T2, human liver TGH (Homo sapiens, UniProt P23141); assay: Effect of test agents on human liver TGH (4-methylumbelliferyl butyrate fluorogenic substrate); assay type: biochemical; conditions: purified human liver TGH 1.16 nM, 15-min pre-incubation, 4-MU-butyrate substrate; read-out: concentration which resulted in 50% inhibition of TGH
T2 construct: the enzyme from microsomal membranes of liver tissues was solubilised by the zwitterionic detergent; from tissue; host or cells: human liver (microsomal membranes)
T2 sequence (P23141 21-567 limits assumed): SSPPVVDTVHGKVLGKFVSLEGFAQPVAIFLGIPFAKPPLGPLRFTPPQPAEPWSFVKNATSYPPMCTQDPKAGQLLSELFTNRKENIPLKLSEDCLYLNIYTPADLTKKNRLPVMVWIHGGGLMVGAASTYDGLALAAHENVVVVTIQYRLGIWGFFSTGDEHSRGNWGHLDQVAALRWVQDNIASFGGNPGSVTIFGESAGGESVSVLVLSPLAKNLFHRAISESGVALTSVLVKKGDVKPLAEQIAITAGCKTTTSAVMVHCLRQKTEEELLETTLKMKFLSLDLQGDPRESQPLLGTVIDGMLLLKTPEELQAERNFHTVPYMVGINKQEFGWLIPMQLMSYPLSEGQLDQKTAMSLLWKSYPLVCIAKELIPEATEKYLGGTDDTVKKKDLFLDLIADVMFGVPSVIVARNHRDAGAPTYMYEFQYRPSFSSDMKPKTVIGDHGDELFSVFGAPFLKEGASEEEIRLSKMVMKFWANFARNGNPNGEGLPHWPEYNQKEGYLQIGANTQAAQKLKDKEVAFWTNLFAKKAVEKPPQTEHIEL
Procedure: Human liver TGH was purified according to Lehner and Verger's protocol described for the porcine liver TGH [13). Briefly, the enzyme from microsomal membranes of liver tissues was solubilised by the zwitterionic detergent 3-[(3 cholamidopropyl)dimethylammonio]-1-propanesulfonate (CHAPS) and was purified to apparent homogeneity by sequential chromatography on Q-sepharose and hydroxyapatite.
The enzymatic activity of TGH was evaluated with the fluorogenic substrate 4-methylumbelliferyl butyrate (4-MU-butyrate). Briefly, 10 μl of a solution of 25 mM of 4-MU-butyrate in tetrahydrofuran was injected in 2 ml of a buffer containing Tris (20 mM), pH 8.0, EDTA (1 mM) and taurodeoxycholate (300 μM). TGH activity was assayed at 1.16 nM in a final volume of 100 μl. The compound was dissolved in DMSO to be tested at various concentrations (from 1 nM to 2 μM) and was incubated with the enzyme 15-min prior to the addition of 20 μl of the substrate, which gives the starting point of the enzymatic reaction. […]
The basal level of fluorescence of the substrate was evaluated in a reaction mixture of 70 μl of buffer, 10 μl of DMSO (at the appropriate dilution) and 20 μl of substrate, and was subtracted from each other data. Rates of lipolysis were determined from continuous increase in fluorescence intensity at 460 nm (Excitation: 355 nm).

[2] = 4 hours after last administration

effect on the enzymatic activity of LPL [1]: did not affect | pIC50 (human liver TGH): 8.40
SMILES: Cc1cccc(NN=C(C(=O)c2cccs2)C(=O)C(F)(F)F)c1 [4,4,4-trifluoro-2-[2-(3-methylphenyl)hydrazono]-1-(2-thienyl)butane-1,3-dione]
HDL cholesterol level (normal fed hamsters; [2]): not significantly affected | reduction in VLDL/LDL cholesterol (from the solvent treated animals) (normal fed hamsters; [2]): 40% | reduction in the plasma TG concentration (from the solvent treated animals) (normal fed hamsters; [2]): −55% | ApoB100 decrease compared to control animals (normal fed hamsters; VLDL/LDL fraction, SDS-PAGE): −39%
